From US12336981B2, “Compounds and compositions for the inhibition of NAMPT” (Valo Health, Inc., priority 2010, dated 2025) come the findings set out here.

One assay has as its target T1, NAMPT (Homo sapiens, UniProt P43490).
T1 construct: His tag; host or cells: E. coli
Nature of the assay: Biochemical inhibition assay: NAMPT enzymatic reaction, NMN quantified by mass spectrometry. The conditions noted are these: NAMPT enzymatic assay; read-out: Biochem IC50. The essentials: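 Inhibition of E. coli-expressed His-tagged human NAMPT, measured as NMN formation by mass spectrometry after a 30 min room-temperature reaction containing 1 μM NAM, 100 μM PRPP and 2.5 mM ATP.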

The next assay deals with A2780 cells. As to the kind of experiment: In-vitro cell proliferation assay (SRB), A2780 cells. It is filed as cell-based. The conditions noted are these: Homo sapiens, A2780, 72 h, A2780 cells, 72 hours, SRB; read-out: A2780 IC50. The essentials: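 Growth inhibition was derived from background-corrected SRB absorbance (570 nm), measured on cells fixed in 6% TCA after three days of compound treatment under 5% CO2 at 37° C.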

Structures are written as SMILES.

T1 sequence (P43490 whole entry): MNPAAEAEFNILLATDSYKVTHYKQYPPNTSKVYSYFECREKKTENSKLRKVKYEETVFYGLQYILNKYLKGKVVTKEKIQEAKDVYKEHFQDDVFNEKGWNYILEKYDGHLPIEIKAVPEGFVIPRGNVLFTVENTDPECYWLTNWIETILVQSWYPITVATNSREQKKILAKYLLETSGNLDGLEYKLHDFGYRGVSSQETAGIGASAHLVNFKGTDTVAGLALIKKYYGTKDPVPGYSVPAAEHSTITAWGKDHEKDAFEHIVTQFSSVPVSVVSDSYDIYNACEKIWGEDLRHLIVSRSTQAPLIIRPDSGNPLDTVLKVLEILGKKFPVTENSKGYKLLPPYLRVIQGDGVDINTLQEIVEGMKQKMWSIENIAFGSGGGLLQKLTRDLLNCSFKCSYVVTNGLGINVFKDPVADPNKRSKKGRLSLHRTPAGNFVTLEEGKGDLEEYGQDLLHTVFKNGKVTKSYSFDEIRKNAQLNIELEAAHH

One may read the IC50 as the midpoint of a concentration-inhibition curve. For `CCCS(=O)(=O)Nc1cccc(S(=O)(=O)c2ccc(CNC(=O)c3cnc4nccn4c3)cc2)c1`, the IC50 on NAMPT was 2.3 nM; with A2780 cells, 86.2 nM.
On the same counts, the results for `O=C(NCc1ccc(S(=O)(=O)c2cccc(-c3ncccn3)c2)cc1)c1ccc2nccn2c1` are 21.9 nM and 3.8 nM.
On the same counts, the results for `O=C(NCc1ccc(S(=O)(=O)c2cccc(N3CCCC3)c2)cc1)c1cnc2[nH]ncc2c1` are 17.1 nM and 12.8 nM.
As for `O=C(NCc1ccc(S(=O)(=O)c2cccc(N3CCCC3)c2)cc1)c1cc2ccncc2o1`, the IC50 at NAMPT worked out at 8.2 nM; with A2780 cells, 7.4 nM.
On the same counts, the results for `O=C(NCc1ccc(S(=O)(=O)c2cccc(N3CCCC3)c2)cc1)c1cc2cnccc2[nH]1` are 13.4 nM and 2.8 nM.
With `O=C(NCc1ccc(S(=O)(=O)c2cccc(N3CCCC3)c2)cc1)c1cnc2nccn2c1`, the IC50 is 2.5 nM on NAMPT and 4.1 nM with A2780 cells.
For `O=C(NCc1ccc(S(=O)(=O)c2cccc(N3CCCC3)c2)cc1)c1cc2ccncc2s1`, the IC50 was 1.9 nM on NAMPT and 2.5 nM in the assay on A2780 cells.
On the same counts, the results for `O=C(NCc1ccc(S(=O)(=O)c2cccc(N3CCCC3)c2)cc1)c1ccc2nccn2c1` are 13.6 nM and 1.6 nM.
On the same counts, the results for `O=C(NCc1ccc(S(=O)(=O)c2cccc(N3CCCC3)c2)cc1)c1ccc2ncsc2c1` are 8.8 nM and 1000 to 10000 nM.
On the same counts, the results for `O=C(NCc1ccc(S(=O)(=O)c2cccc(OC(F)(F)F)c2)cc1)c1cnc2nccn2c1` are 2.5 nM and 2.7 nM.
Regarding `O=C(NCc1ccc(S(=O)(=O)c2cccc(OC(F)(F)F)c2)cc1)c1cnc2[nH]ncc2c1`, the IC50 on NAMPT was 20.4 nM; with A2780 cells it was 7.1 nM.
On the same counts, the results for `O=C(NCc1ccc(S(=O)(=O)c2cccc(OC(F)(F)F)c2)cc1)c1cc2ccncc2o1` are 3.4 nM and 6.7 nM.
Turning to `O=C(NCc1ccc(S(=O)(=O)c2cccc(C(F)(F)F)c2)cc1)c1ccc2ncsc2c1`, the IC50 on NAMPT was found to be 6 nM; in the assay with A2780 cells, 548 nM.
On the same counts, the results for `O=C(NCc1ccc(S(=O)(=O)c2cccc(C(F)(F)F)c2)cc1)c1cnc2nccn2c1` are 2.7 nM and 3 nM.
As to `O=C(NCc1ccc(S(=O)(=O)c2cccc(C(F)(F)F)c2)cc1)c1cc2ccncc2o1`, the results for the IC50 at NAMPT and with A2780 cells were 5.4 nM and 4.8 nM, respectively.
On the same counts, the results for `O=C(NCc1ccc(S(=O)(=O)c2ccc(C(F)(F)F)c(Cl)c2)cc1)c1ccc2nccn2c1` are 2.9 nM and 1.2 nM.
On the same counts, the results for `O=C(NCc1ccc(S(=O)(=O)c2ccc(C(F)(F)F)c(Cl)c2)cc1)c1cc2cnccc2[nH]1` are 13.3 nM and 7.7 nM.
On the same counts, the results for `O=C(NCc1ccc(S(=O)(=O)c2ccc(C(F)(F)F)c(Cl)c2)cc1)c1cc2ccncc2s1` are 3 nM and 2.3 nM.
Take `O=C(NCc1ccc(S(=O)(=O)c2ccc(C(F)(F)F)c(Cl)c2)cc1)c1cc2ccncc2o1`: the half-maximal inhibitory concentration (IC50) turned out to be 7.9 nM at NAMPT and 6.2 nM with A2780 cells.
On the same counts, the results for `O=C(NCc1ccc(S(=O)(=O)c2ccc(C(F)(F)F)c(Cl)c2)cc1)c1cnc2nccn2c1` are 2.8 nM and 1.8 nM.
As to `CCN(CC)C(=O)c1cc(Cl)cc(S(=O)(=O)c2ccc(CNC(=O)c3cc4ccncc4s3)cc2)c1`, the IC50 was 2.3 nM at NAMPT and 0.8 nM in the assay on A2780 cells.
On the same counts, the results for `CCN(CC)C(=O)c1cc(Cl)cc(S(=O)(=O)c2ccc(CNC(=O)c3cnc4nccn4c3)cc2)c1` are 0.9 nM and 1.2 nM.
On the same counts, the results for `O=C(NCc1ccc(S(=O)(=O)c2cc(Cl)cc(CO)c2)cc1)c1ccc2nccn2c1` are 5.8 nM and 1.4 nM.
On the same counts, the results for `O=C(NCc1ccc(S(=O)(=O)c2cc(Cl)cc(CO)c2)cc1)c1cnc2nccn2c1` are 3.4 nM and 11.4 nM.
`O=C(NCc1ccc(S(=O)(=O)c2cc(Cl)cc(C(F)(F)F)c2)cc1)c1cnc2nccn2c1`: the IC50 at NAMPT came out at 4.4 nM; with A2780 cells, 0.4 nM.
On the same counts, the results for `O=C(NCc1ccc(S(=O)(=O)c2ccc(-n3cccn3)c(F)c2)cc1)c1cc2ccncc2o1` are 17.3 nM and 5 nM.
On the same counts, the results for `O=C(NCc1ccc(S(=O)(=O)c2ccc(-n3cccn3)c(F)c2)cc1)c1cnc2[nH]ncc2c1` are 13.1 nM and 3.3 nM.
On the same counts, the results for `O=C(NCc1ccc(S(=O)(=O)c2ccc(OCC(F)(F)F)c(F)c2)cc1)c1cc2ccncc2s1` are 4.6 nM and 23.5 nM.
As to `O=C(NCc1ccc(S(=O)(=O)c2ccc(OCC(F)(F)F)c(F)c2)cc1)c1ccc2nccn2c1`, the IC50 on NAMPT was 15 nM; with A2780 cells, 8 nM.
On the same counts, the results for `O=C(NCc1ccc(S(=O)(=O)c2ccc(OCC(F)(F)F)c(F)c2)cc1)c1cnc2nccn2c1` are 4.4 nM and 7.3 nM.
On the same counts, the results for `O=C(NCc1ccc(S(=O)(=O)c2ccc(OCC(F)(F)F)c(F)c2)cc1)c1cc2ccncc2o1` are 6.9 nM and 23.8 nM.
With `CSc1ccc(S(=O)(=O)c2ccc(CNC(=O)c3cc4ccncc4s3)cc2)cc1F`, the results for the IC50 at NAMPT and with A2780 cells were 2.2 nM and 2 nM, respectively.
On the same counts, the results for `CSc1ccc(S(=O)(=O)c2ccc(CNC(=O)c3ccc4nccn4c3)cc2)cc1F` are 5.6 nM and 2.7 nM.
On the same counts, the results for `CSc1ccc(S(=O)(=O)c2ccc(CNC(=O)c3cc4ccncc4o3)cc2)cc1F` are 12.3 nM and 11.2 nM.
On the same counts, the results for `O=C(NCc1ccc(S(=O)(=O)c2ccc(OC(F)(F)F)c(F)c2)cc1)c1cnc2nccn2c1` are 4 nM and 11.8 nM.
For the compound `O=C(NCc1ccc(S(=O)(=O)c2ccc(OC(F)(F)F)c(F)c2)cc1)c1ccc2nccn2c1`, the results for the IC50 on NAMPT and with A2780 cells were 8.4 nM and 6.3 nM, respectively.
On the same counts, the results for `O=C(NCc1ccc(S(=O)(=O)c2ccc(OC(F)(F)F)c(F)c2)cc1)c1cc2ccncc2o1` are 10 nM and 15.6 nM.
On the same counts, the results for `O=C(NCc1ccc(S(=O)(=O)c2ccc(OC(F)(F)F)c(F)c2)cc1)c1cc2ccncc2s1` are 11.5 nM and 11.5 nM.
Consider `O=C(NCc1ccc(S(=O)(=O)c2ccc(C(F)(F)F)c(F)c2)cc1)c1cc2ccncc2o1`, for which the IC50 on NAMPT was found to be 9.2 nM; with A2780 cells, 13.7 nM.
On the same counts, the results for `O=C(NCc1ccc(S(=O)(=O)c2ccc(C(F)(F)F)c(F)c2)cc1)c1cnc2nccn2c1` are 4.1 nM and 6.9 nM.
On the same counts, the results for `O=C(NCc1ccc(S(=O)(=O)c2ccc(C(F)(F)F)c(F)c2)cc1)c1ccc2nccn2c1` are 40.2 nM and 4.4 nM.
On the same counts, the results for `O=C(NCc1ccc(S(=O)(=O)c2ccc(C(F)(F)F)c(F)c2)cc1)c1cc2ccncc2s1` are 8.8 nM and 7.2 nM.
Turning to `CC(C)COc1cc(F)cc(S(=O)(=O)c2ccc(CNC(=O)c3cnc4nccn4c3)cc2)c1`, the IC50 on NAMPT came out at 3.1 nM; with A2780 cells, 3.4 nM.
On the same counts, the results for `CC(C)COc1cc(F)cc(S(=O)(=O)c2ccc(CNC(=O)c3ccc4nccn4c3)cc2)c1` are 11.3 nM and 3 nM.
On the same counts, the results for `CC(C)COc1cc(F)cc(S(=O)(=O)c2ccc(CNC(=O)c3cc4ccncc4s3)cc2)c1` are 4.8 nM and 7.5 nM.
On the same counts, the results for `CC(C)COc1cc(F)cc(S(=O)(=O)c2ccc(CNC(=O)c3cc4cnccc4[nH]3)cc2)c1` are 13.2 nM and 7 nM.
For `O=C(NCc1ccc(S(=O)(=O)c2cc(F)cc(OCC(F)(F)F)c2)cc1)c1cc2cnccc2[nH]1`, the concentration for half-maximal inhibition (IC50) at NAMPT turned out to be 5.6 nM; in the assay on A2780 cells, 1.9 nM.
On the same counts, the results for `O=C(NCc1ccc(S(=O)(=O)c2cc(F)cc(OCC(F)(F)F)c2)cc1)c1cnc2nccn2c1` are 1.9 nM and 1.5 nM.
On the same counts, the results for `O=C(NCc1ccc(S(=O)(=O)c2cc(F)cc(N3CCOCC3)c2)cc1)c1cc2cnccc2[nH]1` are 4 nM and 0.8 nM.
On the same counts, the results for `O=C(NCc1ccc(S(=O)(=O)c2cc(F)cc(N3CCOCC3)c2)cc1)c1ccc2nccn2c1` are 3 nM and 0.6 nM.
Consider `O=C(NCc1ccc(S(=O)(=O)c2cc(F)cc(N3CCCC3)c2)cc1)c1cnc2nccn2c1`, for which the IC50 is 3.1 nM on NAMPT and 2 nM in the assay on A2780 cells.
On the same counts, the results for `O=C(NCc1ccc(S(=O)(=O)c2cc(F)cc(N3CCCC3)c2)cc1)c1cc2ccncc2s1` are 1.2 nM and 2.7 nM.
On the same counts, the results for `O=C(NCc1ccc(S(=O)(=O)c2cc(F)cc(N3CCCC3)c2)cc1)c1ccc2nccn2c1` are 3.9 nM and 2.2 nM.
On to `O=C(NCc1ccc(S(=O)(=O)c2cc(F)cc(C(F)(F)F)c2)cc1)c1cc2ccncc2o1`, for which the results for the half-inhibitory concentration (IC50) at NAMPT and with A2780 cells were 7.4 nM and 5 nM, respectively.
Take `O=C(NCc1ccc(S(=O)(=O)c2cc(F)cc(C(F)(F)F)c2)cc1)c1cc2cnccc2[nH]1`: the IC50 was determined as 26.2 nM at NAMPT and 3.6 nM with A2780 cells.
On the same counts, the results for `O=C(NCc1ccc(S(=O)(=O)c2cc(F)cc(C(F)(F)F)c2)cc1)c1cnc2nccn2c1` are 5.9 nM and 1.1 nM.
On the same counts, the results for `N#CC1(c2ccc(S(=O)(=O)c3ccc(CNC(=O)c4ccc5nccn5c4)cc3)cc2)CCCC1` are 10.7 nM and 3 nM.
For `N#CC1(c2ccc(S(=O)(=O)c3ccc(CNC(=O)c4cc5cnccc5[nH]4)cc3)cc2)CCCC1`, the 50% inhibitory concentration (IC50) on NAMPT was determined as 60.1 nM; with A2780 cells, 18.9 nM.
On the same counts, the results for `N#CC1(c2ccc(S(=O)(=O)c3ccc(CNC(=O)c4cc5ccncc5o4)cc3)cc2)CCCC1` are 8 nM and 6 nM.
